Assay results from US12503448B2, “Antibacterial and antiparasitic quinoxaline-2,3-diamine derivatives” (University College Cardiff Consultants Limited, priority 2019, dated 2025).
pEC50: −log10 of the molar value. Converted amounts (≈) assume the structure as drawn. Like-named read-outs stand apart in the source and are kept apart here.

How the values were obtained:
[1] = system: E. coli ATCC 25922; experiment: In vitro antibacterial activity; assay type: cell-based; conditions: Escherichia coli, ATCC25922
[2] = system: MRSA EM RSA; experiment: In vitro antibacterial activity; assay type: cell-based; conditions: Staphylococcus aureus
Excerpt: (§1) In vitro Determination of Antibacterial Activity
(§2) Scientific Reports 8 (1), 2018. Bacterial strains of Enterococcus faecalis—ATCC 29212, NCTC 12201, ATCC 51299; Streptococcus pneumoniae—ATCC 49619, 18778, 21394, 21395; Haemophilus influenza—ATCC 49766, 18391, 17428; Staphylococcus aureus—NCTC 12493, ATCC BAA-077, ATCC 700698, 11051; used for testing the compounds, as previously described in “Clinical laboratory testing and in vitro diagnostics test systems—Susceptibility testing of infectious agents and evaluation of performance of antimicrobial susceptibility devices—Part 1: Reference methods for testing the in vitro activity of antimicrobial agentes against bacteria involved in infectious diseases, ISO/FDIS 20776-1:2006(E). All the procedures were carried out in a biosafety containment level 2.

[3] = system: Pseudomonas aeruginosa ATCC 27853; experiment: In vitro antibacterial activity; assay type: cell-based; conditions: ATCC27853
[4] = system: S. mansoni schistosomula; experiment: 72 hours schistosomula drug screen; assay type: cell-based, Schistosoma mansoni; conditions: for Selectivity Index Schistosomula: HepG2 CC50 over schistosomula EC50; for pEC50: Schistosoma mansoni
Procedure, shortened: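 Newly transformed S. mansoni schistosomula were screened for 72 h in 384-well format. Phenotype and motility were scored, and a schistosomula average was derived.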

[5] = system: Staphylococcus aureus NCTC 12493; experiment: Antibacterial MIC (ISO 20776-1); assay type: cell-based; conditions: NCTC12493
Excerpt: as §1, §2

[6] = system: Enterococcus faecalis NCTC 12201; experiment: Antibacterial MIC (ISO 20776-1); assay type: cell-based; conditions: NCTC12201; Enterococcus faecalis NCTC 12201, Vancomycin resistance, vanA
Excerpt: as §1, §2

[7] = system: Streptococcus pneumoniae 18778; experiment: Antibacterial MIC (ISO 20776-1); assay type: cell-based
Excerpt: as §1, §2

[8] = system: Staphylococcus aureus 11051; experiment: Antibacterial MIC (ISO 20776-1); assay type: cell-based
Excerpt: as §1, §2

[9] = system: Haemophilus influenzae 17428; experiment: Antibacterial MIC (ISO 20776-1); assay type: cell-based; conditions: Haemophilus influenzae 17428, Ampicillin resistance, PBP
Excerpt: as §1, §2

[10] = system: Streptococcus pneumoniae 21394; experiment: Antibacterial MIC (ISO 20776-1); assay type: cell-based
Excerpt: as §1, §2

[11] = system: Enterococcus faecalis ATCC 51299; experiment: Antibacterial MIC (ISO 20776-1); assay type: cell-based; conditions: ATCC51299; Enterococcus faecalis ATCC 51299, Vancomycin resistance, vanB
Excerpt: as §1, §2

[12] = system: Streptococcus pneumoniae ATCC 49619; experiment: Antibacterial MIC (ISO 20776-1); assay type: cell-based; conditions: ATCC49619
Excerpt: as §1, §2

[13] = system: Streptococcus pneumoniae 21395; experiment: Antibacterial MIC (ISO 20776-1); assay type: cell-based
Excerpt: as §1, §2

[14] = system: Staphylococcus aureus ATCC 700698; experiment: Antibacterial MIC (ISO 20776-1); assay type: cell-based; conditions: ATCC700698
Excerpt: as §1, §2

[15] = system: Staphylococcus aureus ATCC BAA-977; experiment: Antibacterial MIC (ISO 20776-1); assay type: cell-based; conditions: ATCCBAA977
Excerpt: as §1, §2

[16] = system: Enterococcus faecalis ATCC 29212; experiment: Antibacterial MIC (ISO 20776-1); assay type: cell-based; conditions: ATCC29212
Excerpt: as §1, §2

[17] = system: B. cereus; experiment: In vitro antibacterial activity; assay type: cell-based; conditions: Bacillus cereus
[18] = Metabolic stability in mouse liver microsomes; conditions: for microsomal CLint at 1 μM: liver microsomes; for half-life at 1 μM: microsomes
[19] = MTT assay on HepG2 cells; assay type: cell-based; conditions: human
Description: MTT Assay on HepG2 Cells Human Hepatocyte Carcinoma (HepG2) cells (85011430, Sigma Aldrich) were used to assess the overt toxicity of these anti-infective compounds. […] A negative control (1% v/v Triton X-100; X100, Sigma-Aldrich) was also included in each screen. After addition of compounds, each plate was then incubated for a further 20 hrs before application of MTT reagent (prepared as described in Nur-[…], Bari A, Ghabbour […], Hoffmann […] Nat Prod. 2017 Jun. 23; 80(6):1900-1908 for the assessment of compound cytotoxicity using the MTT assay. […] The plate was then further incubated for 4 hrs. After incubation, each plate was blotted dry under the laminar flow to remove the MTT treated culture media. A 100 μl DMSO: isopropanol (1:1) solution was then added to each well and the plate was then subsequently incubated for 10 minutes at 37° C. Following incubation, each plate was shaken again and then absorbance measured at 570 nm. The absorbance reading was corrected based on the average value of the wells used as blank (no cells). […] The data obtained in this manner is shown in Table 1 in the columns labelled “HepG2”. […] The selectivity indexes for schistosomula and adult worms are shown in the final two columns in Table 1.

[20] = Semi thermodynamic solubility; conditions: thermodynamic from solid
[21] = Plasma protein binding
[22] = schistosomula, 72 hour culture, read-out: EC50 Motility
[23] = schistosomula, 72 hour culture, read-out: EC50 Phenotype
[24] = Streptococcus pneumoniae, 18778
[25] = Streptococcus pneumoniae, 21394
[26] = Streptococcus pneumoniae, 21395
[27] = E. coli ATCC 25922, read-out: MIC90
[28] = Pseudomonas aeruginosa ATCC 27853, read-out: MIC90
[29] = average of phenotype and motility, read-out: EC50 Schistosomula average
[30] = Staphylococcus aureus NCTC 12493, Flucloxacillin resistance, mecA, read-out: MIC
[31] = Streptococcus pneumoniae 18778, ERY, TET resistance, read-out: MIC
[32] = Staphylococcus aureus 11051, Tetracycline resistance, read-out: MIC
[33] = Streptococcus pneumoniae 21394, Penicillin resistance, PBP, read-out: MIC
[34] = Streptococcus pneumoniae ATCC 49619, read-out: MIC
[35] = Streptococcus pneumoniae 21395, ERY, CLIND resistance, MLSB, read-out: MIC
[36] = Staphylococcus aureus ATCC 700698, Vancomycin resistance, hVISA, read-out: MIC
[37] = Staphylococcus aureus ATCC BAA-977, ERY/CLIND resistance, MLSB, read-out: MIC
[38] = Enterococcus faecalis ATCC 29212, read-out: MIC

O=[N+]([O-])c1ccc2nc(Nc3cccc(Cl)c3)c(Nc3cccc(Cl)c3)nc2c1 [Compound 5, N^2, N^3-bis(3-chlorophenyl)-6-nitroquinoxaline-2,3-diamine]
MIC90 [1]: > 125 µg/mL | MIC90 [2]: 3.91 µg/mL (≈ 9.17 µM) | MIC90 ([3]; Pseudomonas aeruginosa): > 125 µg/mL | Selectivity Index Schistosomula [4]: 5 | pEC50 [4, 22]: 5.89 | pEC50 [4, 23]: 5.91 | MIC ([5]; Staphylococcus aureus): 0.06 µg/mL (≈ 0.141 µM) | MIC [6]: 0.06 µg/mL (≈ 0.141 µM) | MIC [7, 24]: 8 µg/mL (≈ 18.8 µM) | MIC ([8]; Staphylococcus aureus, 11051): 0.125 µg/mL (≈ 0.293 µM) | MIC [9]: 8 µg/mL (≈ 18.8 µM) | MIC [10, 25]: 4 µg/mL (≈ 9.38 µM) | MIC [11]: 0.25 µg/mL (≈ 0.586 µM) | MIC ([12]; Streptococcus pneumoniae): 4 µg/mL (≈ 9.38 µM) | MIC [13, 26]: 4 µg/mL (≈ 9.38 µM) | MIC ([14]; Staphylococcus aureus): 0.125 µg/mL (≈ 0.293 µM) | MIC ([15]; Staphylococcus aureus): 0.125 µg/mL (≈ 0.293 µM) | MIC ([16]; Enterococcus faecalis): 0.25 µg/mL (≈ 0.586 µM) | MIC90 [17]: 125 µg/mL (≈ 293 µM)

O=[N+]([O-])c1ccc2nc(Nc3ccc(C(F)(F)F)cc3)c(Nc3ccc(C(F)(F)F)cc3)nc2c1 [Compound 11, 6-nitro-N^2, N^3-bis(4-(trifluoromethyl)phenyl)quinoxaline-2,3-diamine]
MIC90 [1, 27]: > 125 µg/mL | MIC90 [2]: 3.91 µg/mL (≈ 7.93 µM) | MIC90 [3, 28]: > 125 µg/mL | microsomal CLint at 1 μM [18]: 0.134 µL/min/mg | half-life at 1 μM [18]: 172 h | Selectivity Index Schistosomula [4]: 33 | pEC50 [4, 29]: 6.32 | pEC50 [4, 22]: 6.28 | pEC50 [4, 23]: 6.38 | MIC [5, 30]: 0.125 µg/mL (≈ 0.253 µM) | MIC [6]: 0.06 µg/mL (≈ 0.122 µM) | MIC [7, 31]: 4 µg/mL (≈ 8.11 µM) | MIC [8, 32]: 0.125 µg/mL (≈ 0.253 µM) | MIC [9]: 16 µg/mL (≈ 32.4 µM) | MIC [10, 33]: 4 µg/mL (≈ 8.11 µM) | MIC [11]: 0.25 µg/mL (≈ 0.507 µM) | MIC [12, 34]: 2 µg/mL (≈ 4.05 µM) | MIC [13, 35]: 2 µg/mL (≈ 4.05 µM) | MIC [14, 36]: 0.125 µg/mL (≈ 0.253 µM) | MIC [15, 37]: 0.125 µg/mL (≈ 0.253 µM) | MIC [16, 38]: 0.06 µg/mL (≈ 0.122 µM) | CC50 at 24 h [19]: 15600 nM | solubility thermodynamic [20]: 32.8 µM (≈ 16.2 µg/mL) | MIC90 ([17]; B. cereus, read-out: MIC90): < 62.5 µg/mL

COc1ccc(Nc2nc3ccc([N+](=O)[O-])cc3nc2Nc2ccc(OC)c(C(F)(F)F)c2)cc1C(F)(F)F [Compound 12, N^2, N^3-bis(4-methoxy-3-(tritluoromethyl)phenyl)-6-nitroquinoxaline-2,3-diamine]
MIC90 [1, 27]: > 125 µg/mL | MIC90 [2]: 31.2 µg/mL (≈ 56.5 µM) | MIC90 [3, 28]: > 125 µg/mL | microsomal CLint at 1 μM [18]: 10.8 µL/min/mg | half-life at 1 μM [18]: 2.13 h | Selectivity Index Schistosomula [4]: 9 | pEC50 [4, 29]: 6.21 | pEC50 [4, 22]: 6.19 | pEC50 [4, 23]: 6.24 | MIC [5, 30]: 1 µg/mL (≈ 1.81 µM) | MIC [6]: 0.5 µg/mL (≈ 0.903 µM) | MIC [7, 31]: 16 µg/mL (≈ 28.9 µM) | MIC [8, 32]: 2 µg/mL (≈ 3.61 µM) | MIC [9]: > 128 µg/mL | MIC [10, 33]: 8 µg/mL (≈ 14.5 µM) | MIC [11]: 1 µg/mL (≈ 1.81 µM) | MIC [12, 34]: 8 µg/mL (≈ 14.5 µM) | MIC [13, 35]: 8 µg/mL (≈ 14.5 µM) | MIC [14, 36]: 1 µg/mL (≈ 1.81 µM) | MIC [15, 37]: 1 µg/mL (≈ 1.81 µM) | MIC [16, 38]: 0.5 µg/mL (≈ 0.903 µM) | solubility thermodynamic [20]: 4.09 µM (≈ 2.26 µg/mL) | MIC90 ([17]; B. cereus, read-out: MIC90): < 62.5 µg/mL | fraction unbound [21]: 0.0134

O=[N+]([O-])c1ccc2nc(Nc3ccc(F)c(C(F)(F)F)c3)c(Nc3ccc(F)c(C(F)(F)F)c3)nc2c1 [Compound 7, N^2, N^3-bis(4-fluoro-3-(trifluoromethyl)phenyl)-6-nitroquinoxaline-2,3-diamine]
MIC90 [1]: 62.5 µg/mL (≈ 118 µM) | MIC90 [2]: 7.81 µg/mL (≈ 14.8 µM) | MIC90 ([3]; Pseudomonas aeruginosa): > 125 µg/mL | Selectivity Index Schistosomula [4]: 14 | pEC50 [4, 22]: 6.27 | pEC50 [4, 23]: 6.27 | MIC ([5]; Staphylococcus aureus): 0.5 µg/mL (≈ 0.945 µM) | MIC [6]: 0.5 µg/mL (≈ 0.945 µM) | MIC [7, 24]: 32 µg/mL (≈ 60.5 µM) | MIC ([8]; Staphylococcus aureus, 11051): 0.5 µg/mL (≈ 0.945 µM) | MIC [9]: > 64 µg/mL | MIC [10, 25]: 32 µg/mL (≈ 60.5 µM) | MIC [11]: 0.5 µg/mL (≈ 0.945 µM) | MIC ([12]; Streptococcus pneumoniae): 8 µg/mL (≈ 15.1 µM) | MIC [13, 26]: 8 µg/mL (≈ 15.1 µM) | MIC [14, 36]: 0.5 µg/mL (≈ 0.945 µM) | MIC ([15]; Staphylococcus aureus): 0.5 µg/mL (≈ 0.945 µM) | MIC ([16]; Enterococcus faecalis): 1 µg/mL (≈ 1.89 µM) | MIC90 [17]: 125 µg/mL (≈ 236 µM)
